Where two headings read alike, the source gives them in different places. Where a SMILES comes first, the peptide text is derived from it. Bridges are numbered along the chain shown (N, C = ends). [ ]: non-standard residue; d: D form. Phe(4-Cl) = N[C@@H](Cc1ccc(Cl)cc1)C(=O)O
How the values were obtained:
secretion of insulin = type: in vivo, Male Sprague-Dawley-CD rats
Method: (§1) In vivo Bioassay: Male Sprague-Dawley-CD rats weighing 180-200 g housed in temperature and humidity controlled quarters with 14 h light and 10 h dark (light 0700-[…]) were used in all experiments. Animals were fed a standard ration and tap water ad libitum. Experiments were carried out at least 5 days after arrival of rats from the supplier between the hours 1400 and 1600. After ether anesthesia, peptides or saline were administered in a volume of 0.2 ml via the external jugular vein. Animals remained anesthetized until the time of blood collection from the portal vein. Blood collection was performed at various times after administration of the peptide or saline. The blood samples were placed into chilled tubes containing 10 mg EDTA and 50 μl of 2 M Benzamidine per ml of blood.
(§2) All experiments were carried on in a randomized block design. Following analysis of variance difference between treatmments were determined by the multiple range tests of Dunnett and Duncan. Potency values were calculated from four or six point bioassays.

secretion of glucagon = type: in vivo, Male Sprague-Dawley-CD rats
Method: as §1, §2

[1] = system: secretion of growth hormone
Method: GH determinations were performed on tissue culture media utilizing the following reagents: NIAMDD rat GH standard (GH-RP-1), NIAMDD monkey anti-rat GH (GH-Serum-3), and highly purified rat GH for iodination.

[2] = somatostatin = 100, peptide via external jugular vein, blood from portal vein, four or six point bioassays

Row | SMILES | Relative potency to inhibit the secretion of INSULIN (secretion of insulin; rat, in vivo) | Relative potency to inhibit the secretion of GLUCAGON (secretion of glucagon; rat, in vivo) | Relative potency to inhibit the secretion of GH (growth hormone) [1] | Relative potency to inhibit the secretion of GH (growth hormone) ([1]; somatostatin = 100, GH in tissue culture media, four or six point bioassays) | Relative potency to inhibit the secretion of INSULIN (secretion of insulin; [2]) | Relative potency to inhibit the secretion of GLUCAGON (secretion of glucagon; [2])
1 | C[C@H](N)C(=O)NCC(=O)N[C@H]1CSSC[C@@H](C(=O)O)NC(=O)[C@H](CO)NC(=O)[C@H]([C@@H](C)O)NC(=O)[C@H](Cc2ccc(I)cc2)NC(=O)[C@H]([C@@H](C)O)NC(=O)[C@H](CCCCN)NC(=O)[C@@H](Cc2c[nH]c3ccccc23)NC(=O)[C@H](Cc2ccccc2)NC(=O)[C@H](Cc2ccccc2)NC(=O)[C@H](CC(N)=O)NC(=O)[C@H](CCCCN)NC1=O [[P I Phe^11]--D-Trp^8 --SS] | 33 | 800 | – | – | – | –
2 | C[C@H](N)C(=O)NCC(=O)N[C@H]1CSSC[C@@H](C(=O)O)NC(=O)[C@@H](CO)NC(=O)[C@H]([C@@H](C)O)NC(=O)[C@H](Cc2ccc(Cl)cc2)NC(=O)[C@H]([C@@H](C)O)NC(=O)[C@H](CCCCN)NC(=O)[C@@H](Cc2c[nH]c3ccccc23)NC(=O)[C@H](Cc2ccc(Cl)cc2)NC(=O)[C@H](Cc2ccc(Cl)cc2)NC(=O)[C@H](CCCCN)NC1=O [Des--Asn^5 --[P Cl Phe^6,7,11]--D-Trp^8 --D--Ser^13 --SS] (H-AGCK[Phe(4-Cl)][Phe(4-Cl)][dW]KT[Phe(4-Cl)]T[dS]C-OH; disulfide 3-13) | 127 | > 1 | – | – | – | –
3 | C[C@H](N)C(=O)NCC(=O)N[C@H]1CSSC[C@@H](C(=O)O)NC(=O)[C@H](CO)NC(=O)[C@H]([C@@H](C)O)NC(=O)[C@H](Cc2ccc(Cl)cc2)NC(=O)[C@H]([C@@H](C)O)NC(=O)[C@H](CCCCN)NC(=O)[C@H](Cc2c[nH]c3ccccc23)NC(=O)[C@H](Cc2ccc(Cl)cc2)NC(=O)[C@H](Cc2ccc(Cl)cc2)NC(=O)[C@H](CC(N)=O)NC(=O)[C@H](CCCCN)NC1=O [[P Cl Phe^6,7,11]--SS] | 800 | 900 | 78 | – | – | –
4 | C[C@H](N)C(=O)NCC(=O)N[C@H]1CSSC[C@@H](C(=O)O)NC(=O)[C@H](CO)NC(=O)[C@H]([C@@H](C)O)NC(=O)[C@H](Cc2ccccc2)NC(=O)[C@H]([C@@H](C)O)NC(=O)[C@H](CCCCN)NC(=O)[C@H](Cc2c[nH]c3ccccc23)NC(=O)[C@H](Cc2ccccc2)NC(=O)[C@H](Cc2ccccc2)NC(=O)[C@H](CC(N)=O)NC(=O)[C@H](CCCCN)NC1=O [Somatostatin (SS), Somatostatin, reference compound] | – | – | – | 100 | 100 | 100
5 | C[C@@H](O)[C@@H]1NC(=O)[C@H](CCCCN)NC(=O)[C@@H](Cc2c[nH]c3ccccc23)NC(=O)[C@H](Cc2ccccc2)NC(=O)[C@H](Cc2ccc(Cl)cc2)NC(=O)[C@@H](N)CSSC[C@@H](C(=O)O)NC(=O)[C@H](Cc2ccc(Cl)cc2)NC1=O [Des--AA^1,2,4,5,12,13 --[P Cl Phe^6,11]--D-Trp^8 --SS] (H-C[Phe(4-Cl)]F[dW]KT[Phe(4-Cl)]C-OH; disulfide 1-8) | 27 | > 1 | – | – | – | –
6 | C[C@H](N)C(=O)NCC(=O)N[C@H]1CSSC[C@@H](C(=O)O)NC(=O)[C@H](CO)NC(=O)[C@H]([C@@H](C)O)NC(=O)[C@H](Cc2ccccc2)NC(=O)[C@H]([C@@H](C)O)NC(=O)[C@H](CCCCN)NC(=O)[C@@H](Cc2c[nH]c3ccccc23)NC(=O)[C@H](Cc2ccc(I)cc2)NC(=O)[C@H](Cc2ccccc2)NC(=O)[C@H](CC(N)=O)NC(=O)[C@H](CCCCN)NC1=O [[P I Phe^7]--D-Trp^8 --SS] | 100 | 100 | – | – | – | –
7 | C[C@H](N)C(=O)NCC(=O)N[C@H]1CSSC[C@@H](C(=O)O)NC(=O)[C@H](CO)NC(=O)[C@H]([C@@H](C)O)NC(=O)[C@H](Cc2ccc(I)cc2)NC(=O)[C@H]([C@@H](C)O)NC(=O)[C@H](CCCCN)NC(=O)[C@H](Cc2c[nH]c3ccccc23)NC(=O)[C@H](Cc2ccccc2)NC(=O)[C@H](Cc2ccccc2)NC(=O)[C@H](CC(N)=O)NC(=O)[C@H](CCCCN)NC1=O [[P I Phe^11]--SS] | 950 | 900 | 100 | – | – | –
8 | C[C@H](N)C(=O)NCC(=O)N[C@H]1CSSC[C@@H](C(=O)O)NC(=O)[C@H](CO)NC(=O)[C@H]([C@@H](C)O)NC(=O)[C@H](Cc2ccccc2)NC(=O)[C@H]([C@@H](C)O)NC(=O)[C@H](CCCCN)NC(=O)[C@H](Cc2c[nH]c3ccccc23)NC(=O)[C@H](Cc2ccccc2)NC(=O)[C@H](Cc2ccc(Cl)cc2)NC(=O)[C@H](CC(N)=O)NC(=O)[C@H](CCCCN)NC1=O [[P Cl Phe^6]--SS] | 100 | 100 | – | – | – | –
9 | C[C@H](N)C(=O)NCC(=O)N[C@H]1CSSC[C@@H](C(=O)O)NC(=O)[C@H](CO)NC(=O)[C@H]([C@@H](C)O)NC(=O)[C@H](Cc2ccccc2)NC(=O)[C@H]([C@@H](C)O)NC(=O)[C@H](CCCCN)NC(=O)[C@@H](Cc2c[nH]c3ccccc23)NC(=O)[C@H](Cc2ccccc2)NC(=O)[C@H](Cc2ccc(I)cc2)NC(=O)[C@H](CC(N)=O)NC(=O)[C@H](CCCCN)NC1=O [[P I Phe^6]--D-Trp^8 --SS] | 100 | 100 | – | – | – | –

— US4211693A, “Peptides with para-substituted phenylalanine” (The Salk Institute for Biological Studies, priority 1978, dated 1980)
